Experimental data taken from PubChem BioAssay (NCI).
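How tested: cells in 96-well plates exposed to compound for 48 hours at five concentrations. Definition used: TGI = concentration required for complete inhibition of growth.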 Peptide text beside a SMILES is read from it. * marks the point of attachment. Boc = CC(C)(C)OC(=O)*

Assays:
Assay in all cases: NCI-60 cell line screen, 48 h
A498 renal = tested on: A498 renal
BT-549 breast = tested on: BT-549 breast
DU-145 prostate = tested on: DU-145 prostate
HT29 colon = tested on: HT29 colon
NCI/ADR-RES ovarian = tested on: NCI/ADR-RES ovarian
SK-MEL-28 melanoma = tested on: SK-MEL-28 melanoma
T-47D breast = tested on: T-47D breast
U251 CNS = tested on: U251 CNS
PC-3 prostate = tested on: PC-3 prostate
LOX IMVI melanoma = tested on: LOX IMVI melanoma

## Cc1cccc(N2CCN(S(=O)(=O)c3ccc(Cl)cc3)C2=N)c1C
A498 renal
  TGI: > 100 µM
BT-549 breast
  TGI: > 100 µM
DU-145 prostate
  TGI: > 100 µM
HT29 colon
  TGI: > 100 µM
NCI/ADR-RES ovarian
  TGI: > 100 µM
SK-MEL-28 melanoma
  TGI: > 100 µM
T-47D breast
  TGI: > 100 µM
U251 CNS
  TGI: > 100 µM

## COCCCN1C(=O)C2c3[nH]c4ccccc4c3C3CCC(C(C)(C)C)CC3C2C1=O (stereo not drawn)
BT-549 breast
  TGI: > 100 µM
DU-145 prostate
  TGI: > 100 µM
HT29 colon
  TGI: 34 µM
NCI/ADR-RES ovarian
  TGI: > 10 µM
PC-3 prostate
  TGI: 50.8 µM
SK-MEL-28 melanoma
  TGI: > 100 µM
T-47D breast
  TGI: > 100 µM
U251 CNS
  TGI: 34.5 µM

## CC1=CC(c2ccccc2)n2c(nc3cc4ccccc4cc32)N1 (stereo not drawn)
A498 renal
  TGI: > 100 µM
BT-549 breast
  TGI: > 100 µM
DU-145 prostate
  TGI: > 100 µM
HT29 colon
  TGI: > 100 µM
LOX IMVI melanoma
  TGI: > 100 µM
NCI/ADR-RES ovarian
  TGI: > 100 µM
PC-3 prostate
  TGI: > 100 µM
SK-MEL-28 melanoma
  TGI: > 100 µM
T-47D breast
  TGI: > 100 µM
U251 CNS
  TGI: > 100 µM

## O=C1N2CCc3c([nH]c4ccccc34)C23CC2CCCC12S3 (stereo not drawn)
A498 renal
  TGI: > 50 µM
BT-549 breast
  TGI: > 50 µM
DU-145 prostate
  TGI: > 50 µM
HT29 colon
  TGI: > 50 µM
LOX IMVI melanoma
  TGI: > 50 µM
NCI/ADR-RES ovarian
  TGI: 43.9 µM
PC-3 prostate
  TGI: > 50 µM
SK-MEL-28 melanoma
  TGI: > 50 µM
T-47D breast
  TGI: > 50 µM
U251 CNS
  TGI: > 50 µM

## CSCCC(NC(=O)C(CC(C)C)NC(=O)CNC(=O)OC(C)(C)C)C(=O)N(C)C (stereo not drawn) (Boc-Gly-Leu-Met-NMe2; configuration not given here)
A498 renal
  TGI: > 100 µM
BT-549 breast
  TGI: > 100 µM
DU-145 prostate
  TGI: > 100 µM
HT29 colon
  TGI: > 100 µM
LOX IMVI melanoma
  TGI: > 100 µM
NCI/ADR-RES ovarian
  TGI: > 100 µM
PC-3 prostate
  TGI: > 100 µM
SK-MEL-28 melanoma
  TGI: > 100 µM
T-47D breast
  TGI: > 100 µM
U251 CNS
  TGI: > 100 µM

## c1csc(-c2ccc(-c3ccc(-c4cccs4)s3)s2)c1
A498 renal
  TGI: > 100 µM
BT-549 breast
  TGI: > 100 µM
DU-145 prostate
  TGI: > 100 µM
HT29 colon
  TGI: > 100 µM
LOX IMVI melanoma
  TGI: > 100 µM
NCI/ADR-RES ovarian
  TGI: > 100 µM
PC-3 prostate
  TGI: > 100 µM
SK-MEL-28 melanoma
  TGI: > 100 µM
T-47D breast
  TGI: > 100 µM
U251 CNS
  TGI: > 100 µM

## CSC1(SC)CCCCCCCCCCC1
A498 renal
  TGI: > 100 µM
BT-549 breast
  TGI: > 100 µM
DU-145 prostate
  TGI: > 100 µM
HT29 colon
  TGI: > 100 µM
LOX IMVI melanoma
  TGI: 36.4 µM
NCI/ADR-RES ovarian
  TGI: > 100 µM
PC-3 prostate
  TGI: > 100 µM
SK-MEL-28 melanoma
  TGI: > 100 µM
T-47D breast
  TGI: 73.3 µM
U251 CNS
  TGI: > 100 µM

## Cc1ccc(S(=O)(=O)NC(=O)NS(=O)(=O)O)cc1
BT-549 breast
  TGI: > 100 µM
DU-145 prostate
  TGI: > 100 µM
HT29 colon
  TGI: > 100 µM
LOX IMVI melanoma
  TGI: > 100 µM
NCI/ADR-RES ovarian
  TGI: > 100 µM
PC-3 prostate
  TGI: > 100 µM
SK-MEL-28 melanoma
  TGI: > 100 µM
T-47D breast
  TGI: > 100 µM
U251 CNS
  TGI: > 100 µM

## C=CC1(CCC(Br)C(C)(C)Cl)CO1 (stereo not drawn)
A498 renal
  TGI: > 10 µM
BT-549 breast
  TGI: > 10 µM
DU-145 prostate
  TGI: > 10 µM
HT29 colon
  TGI: > 10 µM
NCI/ADR-RES ovarian
  TGI: > 10 µM
PC-3 prostate
  TGI: > 10 µM
SK-MEL-28 melanoma
  TGI: > 10 µM
T-47D breast
  TGI: > 10 µM
U251 CNS
  TGI: > 10 µM

## CSc1s[s+]c(SC)c1-c1ccccc1
A498 renal
  TGI: 47.3 µM
BT-549 breast
  TGI: 28.2 µM
DU-145 prostate
  TGI: > 100 µM
HT29 colon
  TGI: 32.3 µM
LOX IMVI melanoma
  TGI: 52 µM
NCI/ADR-RES ovarian
  TGI: 42.1 µM
PC-3 prostate
  TGI: 54.1 µM
T-47D breast
  TGI: > 100 µM
U251 CNS
  TGI: 41.1 µM

## CCOC(=O)Cc1nc2c(=O)[nH]cnc2n1C1OC(COC(C)=O)C(OC(C)=O)C1OC(C)=O (stereo not drawn)
A498 renal
  TGI: > 100 µM
BT-549 breast
  TGI: > 100 µM
DU-145 prostate
  TGI: > 100 µM
HT29 colon
  TGI: > 100 µM
LOX IMVI melanoma
  TGI: > 100 µM
NCI/ADR-RES ovarian
  TGI: > 100 µM
PC-3 prostate
  TGI: > 100 µM
SK-MEL-28 melanoma
  TGI: > 100 µM
T-47D breast
  TGI: > 100 µM
U251 CNS
  TGI: > 100 µM
